These are literature values, as cited in PubChem BioAssay AID1259409 (Chemical Carcinogenesis Research Information System (CCRIS), 2018).

This data set deals with rodent chemically induced tumor inhibition, incidence and multiplicity. The data set can be described thus: CCRIS tumor inhibitor studies. The settings on record: Dose [Inhibitor]: 0, Promoter: NONE USED.

Structures are written as SMILES.

As for `C=C(C)[C@H]1CC=C(C)CC1`, the “tumour outcome (control, treated, inhibition, significance)” value by setting is: (Carcinogen: METHYLCHOLANTHRENE, 56-49-5, 0.5 ML 1/WK FOR 1 YR BEGINNING POST CARCINOGEN TREATMENT (STUDY DURATION: 24 MO), Route [Inhibitor]: GAVAGE, Species: MOUSE, Strain/Sex: SWISS/MALE, Target Tissue: Type of Lesion: SKIN: SARCOMA AND CARCINOMA, Dose [Carcinogen]: 0.01 MG ON D 1, 7, 14 AND 21 AFTER BIRTH) 5/13 (38%), 2/14 (14%), 63%, not calculated; (Carcinogen: METHYLCHOLANTHRENE, 56-49-5, 0.5 ML 1/WK FOR 1 YR BEGINNING POST CARCINOGEN TREATMENT (STUDY DURATION: 24 MO), Route [Inhibitor]: GAVAGE, Species: MOUSE, Strain/Sex: SWISS/MALE, Target Tissue: Type of Lesion: SPLEEN: LYMPHOMA, Dose [Carcinogen]: 0.01 MG ON D 1, 7, 14 AND 21 AFTER BIRTH) 2/13 (15%), 3/14 (21%), -40%, not calculated; (Carcinogen: N-ETHYL-N-HYDROXYETHYLNITROSAMINE, 13147-25-6, 150 MG/KG/D IN CORN OIL 5 D/WK FOR 30 WK BEGINNING POST CARCINOGEN TREATMENT (STUDY DURATION: 32 WK), Route [Inhibitor]: GAVAGE, Species: RAT, Strain/Sex: F344/MALE, Target Tissue: Type of Lesion: LIVER: TUMOR, Dose [Carcinogen]: 500 PPM IN DRINKING WATER FOR 2 WK) 26/30 (87%), 17/31 (55%), 37%, p<0.01; (Carcinogen: N-NITROSOMETHYLUREA, 684-93-5, 5% IN DIET BEGINNING 1 WK POST CARCINOGEN TREATMENT AND CONTINUING FOR DURATION OF STUDY (STUDY DURATION: 23 WK), Route [Inhibitor]: ORAL, Species: RAT, Strain/Sex: WISTAR/FEMALE, Target Tissue: Type of Lesion: MAMMARY GLAND: TUMOR, Dose [Carcinogen]: 50 MG/KG ONCE) 80%, 50%, 38%, p<0.001; (Carcinogen: N-NITROSOMETHYLUREA, 684-93-5, 5% IN DIET BEGINNING 2 WK PRIOR TO CARCINOGEN TREATMENT AND CONTINUING FOR DURATION OF STUDY (STUDY DURATION: 23 WK), Route [Inhibitor]: ORAL, Species: RAT, Strain/Sex: WISTAR/FEMALE, Target Tissue: Type of Lesion: MAMMARY GLAND: TUMOR, Dose [Carcinogen]: 50 MG/KG ONCE) 80%, 45%, 47%, p<0.001; (Carcinogen: N-NITROSOMETHYLUREA, 684-93-5, 5% IN DIET FOR 2 WK PRIOR TO AND 1 WK POST CARCINOGEN TREATMENT (STUDY DURATION: 23 WK), Route [Inhibitor]: ORAL, Species: RAT, Strain/Sex: WISTAR/FEMALE, Target Tissue: Type of Lesion: MAMMARY GLAND: TUMOR, Dose [Carcinogen]: 50 MG/KG ONCE) 80%, 74%, 8%, not significant. Besides, the “tumour outcome (control, treated, inhibition, significance)” value reads like this: (Carcinogen: SAFROLE, 94-59-7, 0.5 ML 1/WK FOR 1 YR BEGINNING POST CARCINOGEN TREATMENT (STUDY DURATION: 24 MO), Route [Inhibitor]: GAVAGE, Species: MOUSE, Strain/Sex: SWISS/FEMALE, Target Tissue: Type of Lesion: LUNG: PAPILLARY ADENOCARCINOMA, Dose [Carcinogen]: 0.2 MG ON D 1 AND 7 AFTER BIRTH THEN 0.4 MG ON D 14 AND 21) 3/18 (17%), 2/19 (11%), 35%, not calculated; (Carcinogen: SAFROLE, 94-59-7, 0.5 ML 1/WK FOR 1 YR BEGINNING POST CARCINOGEN TREATMENT (STUDY DURATION: 24 MO), Route [Inhibitor]: GAVAGE, Species: MOUSE, Strain/Sex: SWISS/FEMALE, Target Tissue: Type of Lesion: SKIN: SARCOMA, Dose [Carcinogen]: 0.2 MG ON D 1 AND 7 AFTER BIRTH THEN 0.4 MG ON D 14 AND 21) 2/18 (11%), 0/19 (0%), 100%, not calculated; (Carcinogen: SAFROLE, 94-59-7, 0.5 ML 1/WK FOR 1 YR BEGINNING POST CARCINOGEN TREATMENT (STUDY DURATION: 24 MO), Route [Inhibitor]: GAVAGE, Species: MOUSE, Strain/Sex: SWISS/MALE, Target Tissue: Type of Lesion: LIVER: HEPATOCELLULAR CARCINOMA, Dose [Carcinogen]: 0.2 MG ON D 1 AND 7 AFTER BIRTH THEN 0.4 MG ON D 14 AND 21) 7/24 (29%), 0/24 (0%), 100%, p<0.005; (Carcinogen: SAFROLE, 94-59-7, 0.5 ML 1/WK FOR 1 YR BEGINNING POST CARCINOGEN TREATMENT (STUDY DURATION: 24 MO), Route [Inhibitor]: GAVAGE, Species: MOUSE, Strain/Sex: SWISS/MALE, Target Tissue: Type of Lesion: LUNG: PAPILLARY ADENOCARCINOMA, Dose [Carcinogen]: 0.2 MG ON D 1 AND 7 AFTER BIRTH THEN 0.4 MG ON D 14 AND 21) 5/24 (21%), 1/24 (4%), 81%, not calculated; (Carcinogen: SAFROLE, 94-59-7, 0.5 ML 1/WK FOR 1 YR BEGINNING POST CARCINOGEN TREATMENT (STUDY DURATION: 24 MO), Route [Inhibitor]: GAVAGE, Species: MOUSE, Strain/Sex: SWISS/MALE, Target Tissue: Type of Lesion: SKIN: SARCOMA, Dose [Carcinogen]: 0.2 MG ON D 1 AND 7 AFTER BIRTH THEN 0.4 MG ON D 14 AND 21) 2/24 (8%), 0/24 (0%), 100%, not calculated; (Carcinogen: SAFROLE, 94-59-7, 0.5 ML 1/WK FOR 1 YR BEGINNING POST CARCINOGEN TREATMENT (STUDY DURATION: 24 MO), Route [Inhibitor]: GAVAGE, Species: MOUSE, Strain/Sex: SWISS/MALE, Target Tissue: Type of Lesion: SPLEEN: LYMPHOMA, Dose [Carcinogen]: 0.2 MG ON D 1 AND 7 AFTER BIRTH THEN 0.4 MG ON D 14 AND 21) 6/24 (25%), 1/24 (4%), 84%, not calculated. Further, the “tumour outcome (control, treated, inhibition, significance)” value reads like this: (Carcinogen: SAFROLE, 94-59-7, 0.5 ML 1/WK FOR 1 YR BEGINNING POST CARCINOMA TREATMENT (STUDY DURATION: 24 MO), Route [Inhibitor]: GAVAGE, Species: MOUSE, Strain/Sex: SWISS/FEMALE, Target Tissue: Type of Lesion: SPLEEN: LYMPHOMA, Dose [Carcinogen]: 0.2 MG ON D 1 AND 7 AFTER BIRTH THEN 0.4 MG ON D 14 AND 21) 9/18 (50%), 2/19 (11%), 78%, not calculated; (Carcinogen: TANNIC ACID, 1401-55-4, 0.5 ML 1/WK FOR 1 YR BEGINNING POST CARCINOGEN TREATMENT (STUDY DURATION: 24 MO), Route [Inhibitor]: GAVAGE, Species: MOUSE, Strain/Sex: SWISS/FEMALE, Target Tissue: Type of Lesion: LUNG: PAPILLARY ADENOCARCINOMA, Dose [Carcinogen]: 25 MG/KG BW ON D 1, 7, 14 AND 21 AFTER BIRTH) 2/8 (25%), 0/9 (0%), 100%, not calculated; (Carcinogen: TANNIC ACID, 1401-55-4, 0.5 ML 1/WK FOR 1 YR BEGINNING POST CARCINOGEN TREATMENT (STUDY DURATION: 24 MO), Route [Inhibitor]: GAVAGE, Species: MOUSE, Strain/Sex: SWISS/FEMALE, Target Tissue: Type of Lesion: SPLEEN: LYMPHOMA, Dose [Carcinogen]: 25 MG/KG BW ON D 1, 7, 14 AND 21 AFTER BIRTH) 4/8 (50%), 3/9 (33%), 34%, not calculated; (Carcinogen: TANNIC ACID, 1401-55-4, 0.5 ML 1/WK FOR 1 YR BEGINNING POST CARCINOGEN TREATMENT (STUDY DURATION: 24 MO), Route [Inhibitor]: GAVAGE, Species: MOUSE, Strain/Sex: SWISS/MALE, Target Tissue: Type of Lesion: LUNG: PAPILLARY ADENOCARCINOMA, Dose [Carcinogen]: 25 MG/KG BW ON D 1, 7, 14 AND 21 AFTER BIRTH) 3/12 (25%), 0/12 (0%), 100%, not calculated; (Carcinogen: TANNIC ACID, 1401-55-4, 0.5 ML 1/WK FOR 1 YR BEGINNING POST CARCINOGEN TREATMENT (STUDY DURATION: 24 MO), Route [Inhibitor]: GAVAGE, Species: MOUSE, Strain/Sex: SWISS/MALE, Target Tissue: Type of Lesion: SPLEEN: LYMPHOMA, Dose [Carcinogen]: 25 MG/KG BW ON D 1, 7, 14 AND 21 AFTER BIRTH) 5/12 (42%), 3/12 (25%), 40%, not calculated.
